Key:
C. albicans ATCC 10231 = assay: Antifungal broth microdilution (CLSI M27-A3), growth inhibition; type: cell-based, Candida albicans; details: for MIC50 (minimum concentration to inhibit 50% of fungal growth), C. albicans: C. albicans ATCC 10231
Method in brief: (§1)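 Yeast inocula (1–5 × 10^3 CFU/mL) were tested by CLSI M27-A3 broth microdilution in RPMI-1640 at 250–3.9 μg∙mL^−1 (DMSO ≤1%) for 48 h at 30 °C in the dark. Growth was read at OD405, and % inhibition was calculated against growth and sterility controls in triplicate. MIC100 is total inhibition; MIC50 is 50% inhibition.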

C. neoformans ATCC 32264 = assay: as above; type: cell-based, Cryptococcus neoformans; details: for MIC50 (minimum concentration to inhibit 50% of fungal growth), C. neoformans: C. neoformans ATCC 32264
Method in brief: as §1

[1] = tested on: lung cancer (SK-MES-1) cells; assay: Antiproliferative assay (MTT reduction, 3 days); type: cell-based, human; details: >100 µM considered inactive, read-out: IC50 ± SD, SK-MES-1
Procedure: (§2) The antiproliferative activity towards the following human cell lines was determined: normal lung fibroblasts (MRC-5), gastric epithelial adenocarcinoma (AGS), lung cancer (SK-MES-1) and bladder carcinoma (J82) cells.
(§3) All human cell lines used in this work were purchased from the American Type Culture Collection (ATCC, Manasas, VA, USA). […] All media were supplemented with 10% heat-inactivated FBS, 100 IU∙mL^−1 penicillin and 100 µg∙mL^−1 streptomycin. Cells were grown in a humidified incubator with 5% CO2 in air at 37 °C. For the antiproliferative assay, cells were plated at a density of 5 × 10^4 cells∙mL^−1. Cells were seeded in 96-well plates (100 µL∙well^−1). One day after seeding, cells were treated with medium containing the compounds at concentrations ranging from 0 up to 100 µM during 3 days. The compounds were dissolved in DMSO (1% final concentration) and complete medium. Untreated cells (medium containing 1% DMSO) were used as 100% viability controls. […] Each concentration was tested in sextuplicate and experiments were repeated 2 times. Cell viability was determined by means of the MTT reduction assay at the end of the incubation with the products. […] The software used was OriginPro 8.1 [30].

[2] = tested on: normal lung fibroblasts (MRC-5); assay: Antiproliferative assay (MTT reduction, 3 days); type: cell-based, human; details: MRC-5 normal fibroblasts, >100 µM considered inactive, read-out: IC50 ± SD, MRC-5
Procedure: as §2, §3

[3] = tested on: bladder carcinoma (J82) cells; assay: Antiproliferative assay (MTT reduction, 3 days); type: cell-based, human; details: J82 cells, 3 days, MTT; >100 µM considered inactive; read-out: IC50 ± SD, J82
Procedure: (§4) The antiproliferative activity towards the following human cell lines was determined: normal lung fibroblasts (MRC-5), gastric epithelial adenocarcinoma (AGS), lung cancer (SK-MES-1) and bladder carcinoma (J82) cells. […] When comparing the pairs 3–4, 5–6 and 7–8 differing in one CH2 unit in the linker, the activity decreased with linker length.
(§5) All human cell lines used in this work were purchased from the American Type Culture Collection (ATCC, Manasas, VA, USA). Normal lung MRC-5 fibroblasts (CCL-171), SK-MES-1 lung cancer cells (HTB-58) and J82 bladder carcinoma cells (HTB-1) were grown as monolayers in minimum essential Eagle medium (MEM) with Earles’s salts, 2 mM L-glutamine and 1.5 g∙L^−1 sodium bicarbonate. Gastric adenocarcinoma AGS cells (CRL-1739) were grown as monolayers in Ham F-12 medium containing 1 mM L-glutamine and 1.5 g∙L^−1 sodium bicarbonate. All media were supplemented with 10% heat-inactivated FBS, 100 IU∙mL^−1 penicillin and 100 µg∙mL^−1 streptomycin. Cells were grown in a humidified incubator with 5% CO2 in air at 37 °C. For the antiproliferative assay, cells were plated at a density of 5 × 10^4 cells∙mL^−1. Cells were seeded in 96-well plates (100 µL∙well^−1). One day after seeding, cells were treated with medium containing the compounds at concentrations ranging from 0 up to 100 µM during 3 days. The compounds were dissolved in DMSO (1% final concentration) and complete medium. Untreated cells (medium containing 1% DMSO) were used as 100% viability controls. […] Each concentration was tested in sextuplicate and experiments were repeated 2 times. Cell viability was determined by means of the MTT reduction assay at the end of the incubation with the products. The results were transformed to percentage of controls and the IC50 value was obtained adjusting the dose-response curve to a sigmoidal model. The software used was OriginPro 8.1 [30].

[4] = tested on: gastric epithelial adenocarcinoma (AGS) cells; assay: Antiproliferative assay (MTT reduction, 3 days); type: cell-based, human; details: >100 µM considered inactive, read-out: IC50 ± SD, AGS
Procedure: as §4, §5

CC(C)c1cc2c3c(c1OC(=O)CCc1cn(Cc4ccc([N+](=O)[O-])cc4)nn1)OC(=O)C31CCCC(C)(C)C1CC2 (stereo not shown) [Compound 7, 12-O-(3-(1-(4-nitrobenzyl)-1H-1,2,3-triazol-4-yl)-propanoyloxy)-11,20-epoxyabieta-8,11,13-trien-20-one]
Inhibition percentage against C. albicans ATCC 10231 (C. albicans ATCC 10231; 3.9 μg∙mL^−1, 48 h): 0.0% | Inhibition percentage against C. albicans ATCC 10231 (C. albicans ATCC 10231; 7.8 μg∙mL^−1, 48 h): 0.9 ± 0.2% | Inhibition percentage against C. albicans ATCC 10231 (C. albicans ATCC 10231; 15.6 μg∙mL^−1, 48 h): 2.1 ± 0.1% | Inhibition percentage against C. albicans ATCC 10231 (C. albicans ATCC 10231; 62.5 μg∙mL^−1, 48 h): 2.5 ± 0.5% | Inhibition percentage against C. albicans ATCC 10231 (C. albicans ATCC 10231; 125 μg∙mL^−1, 48 h): 10.5 ± 3.0% | Inhibition percentage against C. albicans ATCC 10231 (C. albicans ATCC 10231; 250 μg∙mL^−1, 48 h): 15.5 ± 1.1% | Inhibition percentage against C. albicans ATCC 10231 (C. albicans ATCC 10231; 31. μg∙mL^−1, 48 h): 2.2 ± 0.7% | MIC50 (minimum concentration to inhibit 50% of fungal growth), C. albicans (C. albicans ATCC 10231): >250 µg/mL | Inhibition percentage against C. neoformans ATCC 32264 (C. neoformans ATCC 32264; 3.9 μg∙mL^−1, 48 h): 0.0% | Inhibition percentage against C. neoformans ATCC 32264 (C. neoformans ATCC 32264; 7.8 μg∙mL^−1, 48 h): 0.0% | Inhibition percentage against C. neoformans ATCC 32264 (C. neoformans ATCC 32264; 15.6 μg∙mL^−1, 48 h): 0.0% | Inhibition percentage against C. neoformans ATCC 32264 (C. neoformans ATCC 32264; 31.2 μg∙mL^−1, 48 h): 0.0% | Inhibition percentage against C. neoformans ATCC 32264 (C. neoformans ATCC 32264; 62.5 μg∙mL^−1, 48 h): 0.0% | Inhibition percentage against C. neoformans ATCC 32264 (C. neoformans ATCC 32264; 125 μg∙mL^−1, 48 h): 20.0 ± 1.1% | Inhibition percentage against C. neoformans ATCC 32264 (C. neoformans ATCC 32264; 250 μg∙mL^−1, 48 h): 28.2 ± 2.7% | MIC50 (minimum concentration to inhibit 50% of fungal growth), C. neoformans (C. neoformans ATCC 32264): >250 µg/mL | IC50 [1]: > 100 µM | IC50 [2]: 60.6 ± 3.6 µM | IC50 [3]: > 100 µM | IC50 [4]: 64.3 ± 4.5 µM

CC(C)c1cc2c3c(c1OC(=O)CCCc1cn(Cc4ccc([N+](=O)[O-])cc4)nn1)OC(=O)C31CCCC(C)(C)C1CC2 (stereo not shown) [Compound 8, 12-O-(4-(1-(4-nitrobenzyl)-1H-1,2,3-triazol-4-yl)-butanoyloxy)-11,20-epoxyabieta-8,11,13-trien-20-one]
Inhibition percentage against C. albicans ATCC 10231 (C. albicans ATCC 10231; 3.9 μg∙mL^−1, 48 h): 0.0% | Inhibition percentage against C. albicans ATCC 10231 (C. albicans ATCC 10231; 7.8 μg∙mL^−1, 48 h): 0.0% | Inhibition percentage against C. albicans ATCC 10231 (C. albicans ATCC 10231; 15.6 μg∙mL^−1, 48 h): 0.0% | Inhibition percentage against C. albicans ATCC 10231 (C. albicans ATCC 10231; 62.5 μg∙mL^−1, 48 h): 5.6 ± 1.7% | Inhibition percentage against C. albicans ATCC 10231 (C. albicans ATCC 10231; 125 μg∙mL^−1, 48 h): 14.0 ± 1.9% | Inhibition percentage against C. albicans ATCC 10231 (C. albicans ATCC 10231; 250 μg∙mL^−1, 48 h): 27.5 ± 2.0% | Inhibition percentage against C. albicans ATCC 10231 (C. albicans ATCC 10231; 31. μg∙mL^−1, 48 h): 2.5 ± 1.3% | MIC50 (minimum concentration to inhibit 50% of fungal growth), C. albicans (C. albicans ATCC 10231): >250 µg/mL | Inhibition percentage against C. neoformans ATCC 32264 (C. neoformans ATCC 32264; 3.9 μg∙mL^−1, 48 h): 0.0% | Inhibition percentage against C. neoformans ATCC 32264 (C. neoformans ATCC 32264; 7.8 μg∙mL^−1, 48 h): 0.0% | Inhibition percentage against C. neoformans ATCC 32264 (C. neoformans ATCC 32264; 15.6 μg∙mL^−1, 48 h): 0.3 ± 0.1% | Inhibition percentage against C. neoformans ATCC 32264 (C. neoformans ATCC 32264; 31.2 μg∙mL^−1, 48 h): 0.8 ± 0.1% | Inhibition percentage against C. neoformans ATCC 32264 (C. neoformans ATCC 32264; 62.5 μg∙mL^−1, 48 h): 8.2 ± 2.8% | Inhibition percentage against C. neoformans ATCC 32264 (C. neoformans ATCC 32264; 125 μg∙mL^−1, 48 h): 9.5 ± 2.9% | Inhibition percentage against C. neoformans ATCC 32264 (C. neoformans ATCC 32264; 250 μg∙mL^−1, 48 h): 10.4 ± 2.8% | MIC50 (minimum concentration to inhibit 50% of fungal growth), C. neoformans (C. neoformans ATCC 32264): >250 µg/mL | IC50 [1]: > 100 µM | IC50 [2]: > 100 µM | IC50 [3]: > 100 µM | IC50 [4]: > 100 µM

From paper PMC6272684, “Synthesis, Antiproliferative and Antifungal Activities of 1,2,3-Triazole-Substituted Carnosic Acid and Carnosol Derivatives” (Molecules, 2015)
